From patent US5597798A, “Taxol and epidermal growth factor used to enhance treatment of ovarian cancer” (The Regents of the University of California, priority 1994, dated 1997)
Where two headings read alike, the source gives them in different places.

Key:
2008 cells [1] = experiment: Colony forming (colonogenic) assay, effect of TPA, phorbol and staurosporine on DDP sensitivity
2008/C13*5 cells = experiment: Cellular accumulation of DDP; type: cell-based, human; details: medium alone, end of a 1-h incubation
Procedure: (§1) Cell-associated ^195m Pt was determined by as a measure of DDP accumulation. For DDP accumulation studies, subconfluent monolayers were treated with 37° C. RPMI 1640 medium containing 20 μM [^195m Pt]-DDD. The dishes were immediately returned to the incubater. After 1 h incubation, the medium was aspirated, the cells were washed rapidly with 4° C. PBS 4 times. Two ml of 1N NaOH was added and the cells allowed to digest overnight. A forty μl aliquot was used for determination of protein content by the method of Bradford (Bradford, Anal. Biochem. 72:248-254 (1976)), and the remaining […] was counted in glass tubes on a Trak 1191 gamma counter (Tracer Analytic, EIK Grove Village, Ill.). Columns represent the mean values of 3 experiments performed with duplicate cultures. The bars represent the standard deviation.
The 2008/C13*5 cell line is 8-10-fold resistant to DDP. […] C13*5 cells were treated with appropriate concentration of DDP in the presence (.circle-solid.) or absence (0) of 10^-7 M TPA for 1 h. Drug cytotoxicity was determined by colonogenic assay on plastic dishes. Each point represents the mean values of 3 experiments performed with triplicate cultures. The bars represent the standard deviation. […] This 2.6-fold sensitization was nearly identical with the 2.5 fold sensitization observed in the DDP-sensitive 2008 cells. […]

2008 cells [2] = experiment: Cellular accumulation of [195mPt]DDP; type: cell-based, human; details: 60 min
Procedure: as §1
Cultured 2008 cells were treated concurrently with [^195m Pt]DDP and TPA for 60 min. A vehicle control consisting of an appropriate dilution of acetone was run concurrently. […] Cells treated with medium alone contained 140±13 pmol/mg of protein, whereas those treated with the acetone control contained 141±7 pmol/mg of protein, and those treated with TPA contained 143±21 pmol/mg of protein.

[3] = system: KB-3-1 cervix cancer cells; experiment: Colony forming assay, effect of EGF on cisplatin sensitivity; type: cell-based, human
Text: (§2) The following cell lines were used in these studies: 2008 human ovarian carcinoma (Disaia, et al., Am. J. Obstet. Gynecol. 114:978 (1972)), COLO 316 human ovarian carcinoma (Woods et al., Cancer Res. 39:4449 (1979)), a DDP resistant variant 2008/C13*, derived from the parent 2008 cell line (Andrews, et al., Cancer Res. 45:6250 (1985)), A549 non-small cell lung cancer (Lieber et al., Int. J. Cancer 17:62 (1976)), NCI-H520 squamous cell lung cancer (Brower et al., Cancer Res. 46: 798 (1986)), NCI-H596 adenosquamous lung cancer (Banks-Schlegel et al., Cancer Res. 45: 1187 (1985)), UMC 31 small cell lung cancer cells (Graziano et al., Genes, Chromosomes and Cancer 3: 283 (1991)), GLC4 small cell lung cancer cells (Zijlstra et al., Cancer Res. 47: 1780 (1987)), UMCC10b head and neck cancer cells (Krause et al., Arch. Otolayngol. 107: 703 (1981)), 5637 bladder cancer cells (Fogh et al., J. Natl. Cancer Inst. 58: 209 (1977)), MIA PaCa-2 pancreatic cancer cells (Yunis et al., Int. J. Cancer 19:128 (1977)), Du 145 prostate cancer (Mickey Cancer Res. 37: 4049 (1977)) , COLO 205 colon cancer (Semple et al., Cancer Res. 38:1345 (1978)), KB-3-1 cervix cancer (Akiyama et al., Somat. Cell Mol. Genet. 11: 117 (1985)) , MCF-7 breast cancer (Soule et al., J. Natl. Cancer Inst. 51:1409 (1973)), A431 epidermoid carcinoma of the skin (Giard et al., J. Natl. Cancer Inst. 51: 1417 (1973)) and T-289 melanoma cells (Taetle et al., Cancer (Philadelphia) 60: 1836 (1987)). The human cell line 2008 was established from a patient with a serous cystadenocarcinoma of the ovary. The 8-fold DDP resistant cell line 2008/C13* was generated by 13 monthly selections with […], followed by chronic exposure to stepwise increasing concentrations of DDP, from 0.25 to 5 uM. A resistant subline, designated 2008/C13*5, was obtained by monthly selections with 1 μM DDP. The cells were grown on tissue culture dishes in a humidified incubator at 37° C. and 5% CO2 atmosphere. Cells were grown in either of the following types of media: RPMI 1640, RPMI 1640 plus HITES buffer, DMEM low glucose, or DMEM high glucose supplemented with 5% to 10% heat inactivated fetal calf serum and 2 mM glutamine.
(§3) Colony forming assays were used to assess the effect of each drug on the sensitivity of various tumor cell lines to cytotoxic agents (Andrews, et al., Chem.-Biol. Interact 65:51-58 (1988)). For assays performed on plastic tissue culture dishes, five ml of suspended cells were plated on 60-mm polystyrene tissue culture dishes (Corning Glass Works, Corning, N.Y.). Cells were allowed to attach overnight, then 10 μl of stock drug solution was added to triplicate plates at each drug concentration. Control plates received diluent alone. After 1 h, the drug-containing medium was aspirated and replaced with drug free medium. Plates were incubated in humidified 5% CO2 air, and after 14 days plates were fixed with methanol and stained with Giemsa. Colonies of over 60 cells were counted macroscopically.
(§4) The drug containing media was removed and cells were resuspended in 5 ml of complete medium containing 0.36% low melting-temperature agarose at 37° C. The cell suspension was mixed well and then aliquotted at 1 ml per dish in triplicate onto prepared 35 mm dishes containing a basement layer of solidified 1% agarose. The cell-containing layer was allowed to solidify at 4° C. for 10 minutes, and the dishes were incubated at 37° C. in humidified 5% CO2. Colonies greater than 125 um were counted after 5 days.
(§5) ^a Dose response curves were determined by colony forming assay. Cell

[4] = system: UMC 31 small cell lung cancer cells; experiment: as above; type: cell-based, human
Text: as §2, §3, §4, §5

[5] = ratio of IC50 in control and EGF-treated cells
[6] = read-out: IC50 in absence of EGF, cisplatin 1 h, no EGF
[7] = read-out: IC50 in presence of EGF, 10 nM EGF and cisplatin concurrently for 1 h

Q: With `N.N.[Cl][Pt][Cl]` [cisplatin] as the compound, how does the colony survival (2008 cells [1]; 2 μM DDP in the absence of TPA (FIG. 6)) read?
A: approximately 80%

Q: And the “survival, % of control” value (2008 cells [1]; DDP (2 μM) alone)?
A: 85±5%

Q: And the DDP accumulated (2008/C13*5 cells)?
A: 37.0±3 pmol/mg of protein

Q: And the “cellular accumulation of [195mPt]DDP” value (2008 cells [2]; medium alone)?
A: 140±13 pmol/mg of protein

Q: What about the “cellular accumulation of [195mPt]DDP” value (2008 cells [2]; treated concurrently with TPA) of the same compound?
A: 143±21 pmol/mg of protein

Q: What about the Dose modifying factor [3, 5] of the same compound?
A: 2.0

Q: And the IC50 [3, 6]?
A: 9.71 µM

Q: What about the IC50 [3, 7] of the same compound?
A: 4.79 µM

Q: What about the Dose modifying factor [4, 5] of the same compound?
A: 0.8

Q: What about the IC50 [4, 6] of the same compound?
A: 5.4 µM

Q: What about the IC50 [4, 7] of the same compound?
A: 6.86 µM
